We go through 25 compounds from PubChem BioAssay AID248 (DTP/NCI, 2004).

“And” between values parts separate entries of the source, which are not always exact repeats. Identical values can stand only once. Toxic doses and inconclusive results are not listed.

In this test the test system is L1210 leukemia ip in BDF1 mice, survival T/C. Kind of test: NCI In Vivo Anticancer Drug Screen. Data for tumor model L1210 Leukemia (intraperitoneal) in B6D2F1 (BDF1) mice. The note with it: endpoint: mean survival time, higher = longer survival. The procedure, abridged:
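Mice bearing the transplanted tumor received compound or vehicle. Survival of the treated group was divided by that of the vehicle-treated control group to give the ratio.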

The mark [1] stands for this setting: dose: 100.0 mg/kg/injection, schedule: Q04DX003 (ip), vehicle: saline with Tween-80.
Setting [2] is: dose: 200.0 mg/kg/injection, schedule: Q04DX003 (ip), vehicle: saline with Tween-80.
Where [3] appears, read: dose: 400.0 mg/kg/injection, schedule: Q04DX003 (ip), vehicle: saline with Tween-80.
[4] abbreviates: dose: 100.0 mg/kg/injection, schedule: Q01DX001 (ip), vehicle: saline.
The mark [5] stands for this setting: dose: 200.0 mg/kg/injection, schedule: Q01DX001 (ip), vehicle: saline.
Where [6] appears, read: dose: 400.0 mg/kg/injection, schedule: Q01DX001 (ip), vehicle: saline.
Setting [7] is: dose: 100.0 mg/kg/injection, schedule: Q04DX003 (ip), vehicle: Klucel (hydroxypropylcellulose) (HPC).
Where [8] appears, read: dose: 200.0 mg/kg/injection, schedule: Q04DX003 (ip), vehicle: Klucel (hydroxypropylcellulose) (HPC).
Setting [9] is: dose: 100.0 mg/kg/injection, schedule: Q01DX001 (ip), vehicle: Klucel (hydroxypropylcellulose) (HPC).
Setting [10] is: dose: 200.0 mg/kg/injection, schedule: Q01DX001 (ip), vehicle: Klucel (hydroxypropylcellulose) (HPC).
Where [11] appears, read: dose: 100.0 mg/kg/injection, schedule: Q04DX003 (ip), vehicle: saline.
[12] abbreviates: dose: 200.0 mg/kg/injection, schedule: Q04DX003 (ip), vehicle: saline.
Where [13] appears, read: dose: 400.0 mg/kg/injection, schedule: Q04DX003 (ip), vehicle: saline.
Setting [14] is: dose: 100.0 mg/kg/injection, schedule: Q01DX009 (ip), vehicle: saline.
Setting [15] is: dose: 200.0 mg/kg/injection, schedule: Q01DX009 (ip), vehicle: saline.
[16] abbreviates: dose: 100.0 mg/kg/injection, schedule: Q01DX009 (ip), vehicle: Klucel (hydroxypropylcellulose) (HPC).
Where [17] appears, read: dose: 200.0 mg/kg/injection, schedule: Q01DX009 (ip), vehicle: Klucel (hydroxypropylcellulose) (HPC).
Where [18] appears, read: dose: 400.0 mg/kg/injection, schedule: Q01DX009 (ip), vehicle: Klucel (hydroxypropylcellulose) (HPC).
Setting [19] is: dose: 400.0 mg/kg/injection, schedule: Q04DX003 (ip), vehicle: Klucel (hydroxypropylcellulose) (HPC).

`CC(=O)Oc1ccc2c3c(c(=O)oc2c1)C(C)(C)c1c(c(=O)oc2cc(OC(C)=O)ccc12)C3(C)C`: the T/C is 97 % of control (dose: 100.0 mg/kg/injection, schedule: Q01DX009 (ip), vehicle: saline sonified); 102 % of control (dose: 100.0 mg/kg/injection, schedule: Q04DX003 (ip), vehicle: saline sonified); 98 % of control (dose: 200.0 mg/kg/injection, schedule: Q01DX009 (ip), vehicle: saline sonified); 97 % of control (dose: 200.0 mg/kg/injection, schedule: Q04DX003 (ip), vehicle: saline sonified); 98 % of control (dose: 400.0 mg/kg/injection, schedule: Q01DX009 (ip), vehicle: saline sonified); 105 % of control (dose: 400.0 mg/kg/injection, schedule: Q04DX003 (ip), vehicle: saline sonified).
As to `CCOC(=O)CCN(CC(=O)OCC)C(C)C`, the T/C by setting is: (dose: 100.0 mg/kg/injection, schedule: Q01DX009 (ip), vehicle: saline with Tween-80) 100 % of control; under setting [1], 100 % of control; (dose: 200.0 mg/kg/injection, schedule: Q01DX009 (ip), vehicle: saline with Tween-80) 106 % of control; under setting [2], 95 % of control; (dose: 400.0 mg/kg/injection, schedule: Q01DX009 (ip), vehicle: saline with Tween-80) 110 % of control; under setting [3], 103 % of control.
With `CCCCCCCCCCCCCC(=O)N(CC)CC`, the T/C is 104 % of control (dose: 100.0 mg/kg/injection, schedule: Q01DX001 (ip), vehicle: carboxymethylcellulose (CMC)); 95 % of control and 100 % of control (dose: 100.0 mg/kg/injection, schedule: Q01DX009 (ip), vehicle: carboxymethylcellulose (CMC)); 98 % of control (dose: 100.0 mg/kg/injection, schedule: Q04DX003 (ip), vehicle: carboxymethylcellulose (CMC)); 94 % of control (dose: 200.0 mg/kg/injection, schedule: Q01DX001 (ip), vehicle: carboxymethylcellulose (CMC)); 101 % of control and 107 % of control (dose: 200.0 mg/kg/injection, schedule: Q01DX009 (ip), vehicle: carboxymethylcellulose (CMC)); 92 % of control (dose: 200.0 mg/kg/injection, schedule: Q04DX003 (ip), vehicle: carboxymethylcellulose (CMC)). The T/C is 96 % of control (dose: 400.0 mg/kg/injection, schedule: Q01DX001 (ip), vehicle: carboxymethylcellulose (CMC)) and 103 % of control (dose: 400.0 mg/kg/injection, schedule: Q04DX003 (ip), vehicle: carboxymethylcellulose (CMC)).
As to `O=C1C(N2CCCCC2)=C(c2ccccc2)c2ccccc21`, the T/C was 92 % of control under setting [4], 94 % of control under setting [5] and 102 % of control under setting [6].
On to `CCCCCCCCCCCCCCCCCC`, for which the T/C by setting is: (dose: 100.0 mg/kg/injection, schedule: Q04DX002 (ip), vehicle: other) 96 % of control; (dose: 200.0 mg/kg/injection, schedule: Q04DX002 (ip), vehicle: other) 92 % of control.
For `CCCCCCc1cc(CN(C2CCCCC2)C2CCCCC2)c(O)cc1O`, the T/C reads like this: under setting [4], 92 % of control; under setting [6], 87 % of control.
`O=c1cc(NCc2cccc3ccccc23)[nH]c(=O)[nH]1`: the T/C by setting is: (dose: 37.5 mg/kg/injection, schedule: Q01DX001 (ip), vehicle: Klucel (hydroxypropylcellulose) (HPC)) 97 % of control; (dose: 75.0 mg/kg/injection, schedule: Q01DX001 (ip), vehicle: Klucel (hydroxypropylcellulose) (HPC)) 95 % of control; (dose: 150.0 mg/kg/injection, schedule: Q01DX001 (ip), vehicle: Klucel (hydroxypropylcellulose) (HPC)) 93 % of control.
In the case of `Cc1noc(C)c1C=O`, the T/C is, setting by setting: under setting [7], 102 % of control; under setting [8], 95 % of control.
As to `CCCCC(C#N)(CCCC)C(=O)OCC`, the T/C is, setting by setting: under setting [1], 93 % of control; under setting [2], 98 % of control.
With `Cc1ccc(Nc2n[nH]c(=S)s2)c(C)c1`, the T/C (dose: 100.0 mg/kg/injection, schedule: Q04DX002 (ip), vehicle: gum acacia) was 96 % of control; the T/C (dose: 200.0 mg/kg/injection, schedule: Q04DX002 (ip), vehicle: gum acacia) was 96 % of control; the T/C (dose: 400.0 mg/kg/injection, schedule: Q04DX002 (ip), vehicle: gum acacia) was 111 % of control.
As for `COC(=O)C(c1ccccc1)c1ccccc1`, the T/C runs as follows: under setting [9], 97 % of control; under setting [10], 97 % of control; (dose: 400.0 mg/kg/injection, schedule: Q01DX001 (ip), vehicle: Klucel (hydroxypropylcellulose) (HPC)) 104 % of control.
Consider `CC(OC(=O)c1ccccc1O)c1ccccc1` (stereo not given), for which the T/C by setting is: under setting [11], 96 % of control; under setting [12], 96 % of control; under setting [13], 100 % of control.
As for `CCOC(=O)NC(=S)NN`, the T/C was 105 % of control under setting [14] and 110 % of control under setting [15].
On to `O=C(N/N=C/c1ccc(Cl)cc1)c1ccccc1NC(=O)C1CC1`, for which the T/C under setting [16] was 97 % of control, the T/C under setting [17] is 87 % of control and the T/C under setting [18] is 103 % of control.
As for `COc1ccc(-n2c(=O)c(N=Nc3ccc(Br)cc3)c(O)n(-c3ccc(I)cc3)c2=S)cc1`, the T/C was 103 % of control (dose: 50.0 mg/kg/injection, schedule: Q01DX001 (ip), vehicle: Klucel (hydroxypropylcellulose) (HPC)); 100 % of control under setting [9]; 91 % of control under setting [10].
Turning to `CCCCCCCCCOC(=O)NC1c2ccccc2Oc2ccccc21`, the T/C runs as follows: (dose: 100.0 mg/kg/injection, schedule: Q01DX009 (ip), vehicle: acetone) 93 % of control; under setting [11], 98 % of control; under setting [12], 98 % of control; under setting [13], 88 % of control.
Consider `O=S(=O)(Nc1ccc(F)cc1)c1ccccc1`, for which the T/C was 96 % of control under setting [16]; 103 % of control under setting [7]; 102 % of control under setting [17]; 95 % of control under setting [8]; 105 % of control under setting [18]; 93 % of control under setting [19].
Take `CCCCCCCCCCCCCCCCN(C)C(=S)c1ccc(OC)cc1`: the T/C reads like this: under setting [7], 101 % of control; under setting [8], 101 % of control; under setting [19], 94 % of control.
Turning to `COc1cccc(OC)c1C1(O)c2ccccc2-c2ccccc21`, the T/C was 98 % of control under setting [1], 95 % of control under setting [2] and 95 % of control under setting [3].
As for `CC(=O)NC(=O)NC(C)=O`, the T/C is, setting by setting: under setting [4], 95 % of control; under setting [14], 100 % of control; under setting [11], 99 % of control; under setting [5], 94 % of control; under setting [15], 105 % of control; under setting [12], 97 % of control. In addition, the T/C is 97 % of control under setting [6]; 95 % of control (dose: 400.0 mg/kg/injection, schedule: Q01DX009 (ip), vehicle: saline); 100 % of control under setting [13].
With `CC[N+]1(C)CC2C3CCC(C)(O3)C2C1` (stereo not given), the T/C is 104 % of control (dose: 44.0 mg/kg/injection, schedule: Q01DX Z (ip), vehicle: methylcellulose (MC)); 98 % of control (dose: 66.0 mg/kg/injection, schedule: Q01DX Z (ip), vehicle: methylcellulose (MC)); 104 % of control (dose: 100.0 mg/kg/injection, schedule: Q01DX Z (ip), vehicle: methylcellulose (MC)).
As for `CC(=O)CC(=O)Nc1cc(C)ccc1C`, the T/C is 101 % of control under setting [11], 118 % of control under setting [12] and 95 % of control under setting [13].
Consider `CN(C)c1ccc2c(c1)C(=NO)c1cc(N(C)C)ccc1-2`, for which the T/C is 104 % of control under setting [7], 96 % of control under setting [8] and 91 % of control under setting [19].
Take `COc1cc2c(ccc3c4cc(OC)c(OC)cc4c[n+](C)c23)cc1O`: the T/C (dose: 80.0 mg/kg/injection, schedule: Q01DX009 (ip), vehicle: saline) is 159 % of control; the T/C under setting [7] is 120 % of control; the T/C (dose: 320.0 mg/kg/injection, schedule: Q01DX009 (ip), vehicle: saline) is 161 % of control; the T/C under setting [19] is 120 % of control.
On to `CC(C)(C)NNC(=O)c1ccccc1`, for which the T/C (dose: 75.0 mg/kg/injection, schedule: Q04DX003 (ip), vehicle: saline with Tween-80) is 106 % of control.
